Test results published in ChEMBL document CHEMBL1201862, “PubChem BioAssay data set” (2004).
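Cells were grown in 96-well plates and exposed to each compound for 48 hours at five concentrations; endpoints were interpolated linearly between bracketing concentrations, or set to the highest concentration if not reached. The concentration for 50% growth inhibition is given as GI50.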 Active and inactive are the calls of the source. Cut-off read from the data, not from the text of the source: active = GI50 up to about 1.1 µM and inactive = higher.

Experiments:
Experiment in all cases: inhibition of tumour cell growth, NCI panel, 48 h
NCI-H23 = tested on: NCI-H23
OVCAR-5 = tested on: OVCAR-5
EKVX = tested on: EKVX
CAKI-1 = tested on: CAKI-1
NCI/ADR-RES = tested on: NCI/ADR-RES
SF-539 = tested on: SF-539
SNB-19 = tested on: SNB-19
OVCAR-3 = tested on: OVCAR-3
RPMI-8226 = tested on: RPMI-8226
HOP-62 = tested on: HOP-62
MOLT-4 = tested on: MOLT-4
Hs-578T = tested on: Hs-578T
UACC-257 = tested on: UACC-257
SK-OV-3 = tested on: SK-OV-3
CCRF-CEM = tested on: CCRF-CEM
T47D = tested on: T47D
OVCAR-4 = tested on: OVCAR-4
SF-295 = tested on: SF-295
LOX IMVI = tested on: LOX IMVI
TK-10 = tested on: TK-10
MCF7 = tested on: MCF7
HL-60 = tested on: HL-60
Malme-3M = tested on: Malme-3M
U-251 = tested on: U-251
NCI-H460 = tested on: NCI-H460
M14 = tested on: M14
PC-3 = tested on: PC-3
IGROV-1 = tested on: IGROV-1
SNB-75 = tested on: SNB-75
RXF 393 = tested on: RXF 393
HCT-116 = tested on: HCT-116
K562 = tested on: K562
UACC-62 = tested on: UACC-62
HOP-92 = tested on: HOP-92
OVCAR-8 = tested on: OVCAR-8
A498 = tested on: A498
HCC 2998 = tested on: HCC 2998
BT-549 = tested on: BT-549
A549 = tested on: A549
KM12 = tested on: KM12
UO-31 = tested on: UO-31
HT-29 = tested on: HT-29
MDA-MB-435 = tested on: MDA-MB-435
SK-MEL-2 = tested on: SK-MEL-2
SF-268 = tested on: SF-268
786-0 = tested on: 786-0
ACHN = tested on: ACHN
SK-MEL-5 = tested on: SK-MEL-5
NCI-H522 = tested on: NCI-H522
SK-MEL-28 = tested on: SK-MEL-28
COLO 205 = tested on: COLO 205
SR = tested on: SR
SW-620 = tested on: SW-620
MDA-MB-231 = tested on: MDA-MB-231
MDA-N = tested on: MDA-N
NCI-H226 = tested on: NCI-H226
HCT-15 = tested on: HCT-15
SN12C = tested on: SN12C
DU-145 = tested on: DU-145

Structure (SMILES): CN(/N=C/c1ccccn1)C1=NCCCCN1
- GI50 (NCI-H23): > 100 µM (inactive)
- GI50 (OVCAR-5): > 100 µM (inactive)
- GI50 (EKVX): > 100 µM (inactive)
- GI50 (CAKI-1): > 100 µM (inactive)
- GI50 (NCI/ADR-RES): > 100 µM (inactive)
- GI50 (SF-539): > 100 µM (inactive)
- GI50 (SNB-19): > 100 µM (inactive)
- GI50 (OVCAR-3): > 100 µM (inactive)
- GI50 (RPMI-8226): > 100 µM (inactive)
- GI50 (HOP-62): > 100 µM (inactive)
- GI50 (MOLT-4): > 100 µM (inactive)
- GI50 (Hs-578T): > 100 µM (inactive)
- GI50 (UACC-257): > 100 µM (inactive)
- GI50 (SK-OV-3): > 100 µM (inactive)
- GI50 (CCRF-CEM): > 100 µM (inactive)
- GI50 (T47D): > 100 µM (inactive)
- GI50 (OVCAR-4): > 100 µM (inactive)
- GI50 (SF-295): > 100 µM (inactive)
- GI50 (LOX IMVI): > 100 µM (inactive)
- GI50 (TK-10): > 100 µM (inactive)
- GI50 (MCF7): > 100 µM (inactive)
- GI50 (HL-60): > 100 µM (inactive)
- GI50 (Malme-3M): > 100 µM (inactive)
- GI50 (U-251): > 100 µM (inactive)
- GI50 (NCI-H460): > 100 µM (inactive)
- GI50 (M14): > 100 µM (inactive)
- GI50 (PC-3): > 100 µM (inactive)
- GI50 (IGROV-1): > 100 µM (inactive)
- GI50 (SNB-75): > 100 µM (inactive)
- GI50 (RXF 393): > 100 µM (inactive)
- GI50 (HCT-116): > 100 µM (inactive)
- GI50 (K562): > 100 µM (inactive)
- GI50 (UACC-62): > 100 µM (inactive)
- GI50 (HOP-92): > 100 µM (inactive)
- GI50 (OVCAR-8): > 100 µM (inactive)
- GI50 (A498): > 100 µM (inactive)
- GI50 (HCC 2998): > 100 µM (inactive)
- GI50 (BT-549): > 100 µM (inactive)
- GI50 (A549): > 100 µM (inactive)
- GI50 (KM12): > 100 µM (inactive)
- GI50 (UO-31): > 100 µM (inactive)
- GI50 (HT-29): > 100 µM (inactive)
- GI50 (MDA-MB-435): > 100 µM (inactive)
- GI50 (SK-MEL-2): > 100 µM (inactive)
- GI50 (SF-268): > 100 µM (inactive)
- GI50 (786-0): > 100 µM (inactive)
- GI50 (ACHN): > 100 µM (inactive)
- GI50 (SK-MEL-5): > 100 µM (inactive)
- GI50 (NCI-H522): > 100 µM (inactive)
- GI50 (SK-MEL-28): > 100 µM (inactive)
- GI50 (COLO 205): > 100 µM (inactive)
- GI50 (SR): > 100 µM (inactive)
- GI50 (SW-620): > 100 µM (inactive)
- GI50 (MDA-MB-231): > 100 µM (inactive)
- GI50 (MDA-N): > 100 µM (inactive)
- GI50 (NCI-H226): > 100 µM (inactive)
- GI50 (HCT-15): > 100 µM

Structure (SMILES): CCOP(=O)(OCC)C(F)(F)c1ccc(CC(NC(=O)OC(C)(C)C)C(=O)O)cc1 (stereo not given)
- GI50 (NCI-H23): > 10 µM (inactive)
- GI50 (OVCAR-5): > 10 µM (inactive)
- GI50 (EKVX): > 10 µM (inactive)
- GI50 (CAKI-1): > 10 µM (inactive)
- GI50 (NCI/ADR-RES): > 10 µM (inactive)
- GI50 (SF-539): > 10 µM (inactive)
- GI50 (SNB-19): > 10 µM (inactive)
- GI50 (OVCAR-3): > 10 µM (inactive)
- GI50 (HOP-62): 5.15 µM (inactive)
- GI50 (MOLT-4): > 10 µM (inactive)
- GI50 (Hs-578T): > 10 µM (inactive)
- GI50 (UACC-257): > 10 µM (inactive)
- GI50 (SK-OV-3): > 10 µM (inactive)
- GI50 (CCRF-CEM): > 10 µM (inactive)
- GI50 (T47D): > 10 µM (inactive)
- GI50 (OVCAR-4): > 10 µM (inactive)
- GI50 (SF-295): > 10 µM (inactive)
- GI50 (LOX IMVI): > 10 µM (inactive)
- GI50 (TK-10): > 10 µM (inactive)
- GI50 (MCF7): > 10 µM (inactive)
- GI50 (Malme-3M): > 10 µM (inactive)
- GI50 (U-251): > 10 µM (inactive)
- GI50 (SN12C): > 10 µM (inactive)
- GI50 (NCI-H460): > 10 µM (inactive)
- GI50 (M14): > 10 µM (inactive)
- GI50 (PC-3): > 10 µM (inactive)
- GI50 (IGROV-1): > 10 µM (inactive)
- GI50 (SNB-75): > 10 µM (inactive)
- GI50 (HCT-116): > 10 µM (inactive)
- GI50 (K562): > 10 µM (inactive)
- GI50 (UACC-62): > 10 µM (inactive)
- GI50 (HOP-92): > 10 µM (inactive)
- GI50 (OVCAR-8): > 10 µM (inactive)
- GI50 (A498): > 10 µM (inactive)
- GI50 (HCC 2998): > 10 µM (inactive)
- GI50 (BT-549): > 10 µM (inactive)
- GI50 (A549): > 10 µM (inactive)
- GI50 (DU-145): > 10 µM (inactive)
- GI50 (KM12): > 10 µM (inactive)
- GI50 (UO-31): > 10 µM (inactive)
- GI50 (HT-29): > 10 µM (inactive)
- GI50 (MDA-MB-435): > 10 µM (inactive)
- GI50 (SF-268): > 10 µM (inactive)
- GI50 (786-0): > 10 µM (inactive)
- GI50 (ACHN): > 10 µM (inactive)
- GI50 (SK-MEL-5): > 10 µM (inactive)
- GI50 (SK-MEL-28): > 10 µM (inactive)
- GI50 (COLO 205): > 10 µM (inactive)
- GI50 (SW-620): > 10 µM (inactive)
- GI50 (MDA-MB-231): > 10 µM (inactive)
- GI50 (MDA-N): > 10 µM (inactive)
- GI50 (NCI-H226): > 10 µM (inactive)
- GI50 (HCT-15): > 10 µM

Structure (SMILES): COc1cc(NS(C)(=O)=O)ccc1Nc1cc(C)nc2ccc3[nH]ccc3c12
- GI50 (NCI-H23): > 100 µM (inactive)
- GI50 (OVCAR-5): > 100 µM (inactive)
- GI50 (EKVX): > 100 µM (inactive)
- GI50 (CAKI-1): > 100 µM (inactive)
- GI50 (NCI/ADR-RES): > 100 µM (inactive)
- GI50 (SNB-19): > 100 µM (inactive)
- GI50 (OVCAR-3): > 100 µM (inactive)
- GI50 (RPMI-8226): > 100 µM (inactive)
- GI50 (HOP-62): > 100 µM (inactive)
- GI50 (Hs-578T): > 100 µM (inactive)
- GI50 (UACC-257): > 100 µM (inactive)
- GI50 (T47D): > 100 µM (inactive)
- GI50 (OVCAR-4): > 100 µM (inactive)
- GI50 (SF-295): > 100 µM (inactive)
- GI50 (LOX IMVI): > 100 µM (inactive)
- GI50 (TK-10): > 100 µM (inactive)
- GI50 (MCF7): > 100 µM (inactive)
- GI50 (HL-60): > 100 µM (inactive)
- GI50 (U-251): > 100 µM (inactive)
- GI50 (SN12C): > 100 µM (inactive)
- GI50 (NCI-H460): > 100 µM (inactive)
- GI50 (M14): > 100 µM (inactive)
- GI50 (PC-3): > 100 µM (inactive)
- GI50 (IGROV-1): > 100 µM (inactive)
- GI50 (HCT-116): > 100 µM (inactive)
- GI50 (K562): > 100 µM (inactive)
- GI50 (UACC-62): > 100 µM (inactive)
- GI50 (HOP-92): > 100 µM (inactive)
- GI50 (OVCAR-8): > 100 µM (inactive)
- GI50 (A498): > 100 µM (inactive)
- GI50 (BT-549): > 100 µM (inactive)
- GI50 (A549): > 100 µM (inactive)
- GI50 (DU-145): > 100 µM (inactive)
- GI50 (KM12): > 100 µM (inactive)
- GI50 (UO-31): > 100 µM (inactive)
- GI50 (HT-29): > 100 µM (inactive)
- GI50 (MDA-MB-435): > 100 µM (inactive)
- GI50 (SK-MEL-2): > 100 µM (inactive)
- GI50 (SF-268): > 100 µM (inactive)
- GI50 (786-0): > 100 µM (inactive)
- GI50 (ACHN): > 100 µM (inactive)
- GI50 (SK-MEL-5): > 100 µM (inactive)
- GI50 (NCI-H522): 8.69 µM (inactive)
- GI50 (SK-MEL-28): > 100 µM (inactive)
- GI50 (COLO 205): > 100 µM (inactive)
- GI50 (SW-620): > 100 µM (inactive)
- GI50 (MDA-MB-231): > 100 µM (inactive)
- GI50 (MDA-N): > 100 µM (inactive)
- GI50 (NCI-H226): > 100 µM (inactive)
- GI50 (HCT-15): > 100 µM
